Laboratory results published in PMC7026418, “The kinase polypharmacology landscape of clinical PARP inhibitors” (Scientific Reports, 2020).
Read-outs that look alike come from different tables or passages of the source.

Tests used:
Experiment in all cases: biochemical
Set-up in all cases: DiscoveRx KINOMEscan active site-directed competition binding; percent of control kinase bound to immobilised ligand
[1] = biological target: T1, RPS6KA5(Kin.Dom.2-C-terminal) (Homo sapiens, UniProt O75582)
T1 construct: Kin.Dom.2-C-terminal
T1 sequence (O75582 whole entry): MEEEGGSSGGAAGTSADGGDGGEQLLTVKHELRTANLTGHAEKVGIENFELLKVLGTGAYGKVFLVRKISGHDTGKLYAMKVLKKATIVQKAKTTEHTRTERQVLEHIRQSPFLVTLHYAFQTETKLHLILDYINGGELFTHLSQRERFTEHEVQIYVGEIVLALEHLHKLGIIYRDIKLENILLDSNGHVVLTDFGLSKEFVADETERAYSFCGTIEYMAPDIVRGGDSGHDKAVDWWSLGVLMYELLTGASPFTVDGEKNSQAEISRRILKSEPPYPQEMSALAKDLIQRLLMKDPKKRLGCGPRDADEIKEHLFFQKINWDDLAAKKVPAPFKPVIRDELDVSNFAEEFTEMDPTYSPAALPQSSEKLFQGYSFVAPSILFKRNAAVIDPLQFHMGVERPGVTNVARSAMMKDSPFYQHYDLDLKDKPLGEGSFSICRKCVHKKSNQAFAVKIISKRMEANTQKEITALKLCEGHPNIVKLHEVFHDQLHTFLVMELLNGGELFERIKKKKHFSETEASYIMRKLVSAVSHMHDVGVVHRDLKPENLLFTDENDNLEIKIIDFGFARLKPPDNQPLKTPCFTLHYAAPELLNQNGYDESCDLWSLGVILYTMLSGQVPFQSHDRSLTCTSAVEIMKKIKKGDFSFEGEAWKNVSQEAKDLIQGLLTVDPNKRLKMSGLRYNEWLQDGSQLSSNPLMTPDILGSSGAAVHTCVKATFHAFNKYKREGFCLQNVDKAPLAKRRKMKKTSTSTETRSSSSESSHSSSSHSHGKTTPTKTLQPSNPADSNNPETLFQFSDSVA

[2] = biological target: PIK3CA(H1047L) (Homo sapiens, UniProt P42336, H1047L)
Chain of PIK3CA(H1047L) (P42336 whole entry H1047L): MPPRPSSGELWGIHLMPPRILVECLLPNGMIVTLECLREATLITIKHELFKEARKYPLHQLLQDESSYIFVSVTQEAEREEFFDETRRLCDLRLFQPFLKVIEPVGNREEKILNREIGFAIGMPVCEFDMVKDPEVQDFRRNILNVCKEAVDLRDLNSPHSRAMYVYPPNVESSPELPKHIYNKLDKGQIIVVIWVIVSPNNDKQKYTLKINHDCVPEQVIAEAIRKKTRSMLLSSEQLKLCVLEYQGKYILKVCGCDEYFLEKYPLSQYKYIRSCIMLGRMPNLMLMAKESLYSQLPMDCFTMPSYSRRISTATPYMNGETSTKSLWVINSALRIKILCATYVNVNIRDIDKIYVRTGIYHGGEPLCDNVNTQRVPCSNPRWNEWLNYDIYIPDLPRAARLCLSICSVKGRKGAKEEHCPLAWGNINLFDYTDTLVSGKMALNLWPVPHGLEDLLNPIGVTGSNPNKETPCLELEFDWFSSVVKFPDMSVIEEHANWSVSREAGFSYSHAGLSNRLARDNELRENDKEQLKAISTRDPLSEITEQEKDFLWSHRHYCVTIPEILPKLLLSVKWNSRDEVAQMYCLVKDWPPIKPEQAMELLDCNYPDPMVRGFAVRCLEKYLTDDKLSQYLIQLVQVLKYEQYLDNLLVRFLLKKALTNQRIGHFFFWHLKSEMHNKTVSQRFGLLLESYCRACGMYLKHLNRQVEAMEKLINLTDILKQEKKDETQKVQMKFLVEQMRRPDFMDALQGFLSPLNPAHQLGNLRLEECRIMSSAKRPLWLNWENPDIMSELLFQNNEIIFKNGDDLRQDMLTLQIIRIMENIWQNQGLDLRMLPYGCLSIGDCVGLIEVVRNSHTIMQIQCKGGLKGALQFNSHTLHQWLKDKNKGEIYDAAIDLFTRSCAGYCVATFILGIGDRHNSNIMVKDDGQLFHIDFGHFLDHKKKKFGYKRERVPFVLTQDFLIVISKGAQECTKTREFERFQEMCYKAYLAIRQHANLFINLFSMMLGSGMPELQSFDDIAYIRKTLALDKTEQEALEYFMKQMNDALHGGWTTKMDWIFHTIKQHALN

[3] = biological target: T2, TNK1 (Homo sapiens, UniProt Q13470)
T2 sequence (Q13470 1-666): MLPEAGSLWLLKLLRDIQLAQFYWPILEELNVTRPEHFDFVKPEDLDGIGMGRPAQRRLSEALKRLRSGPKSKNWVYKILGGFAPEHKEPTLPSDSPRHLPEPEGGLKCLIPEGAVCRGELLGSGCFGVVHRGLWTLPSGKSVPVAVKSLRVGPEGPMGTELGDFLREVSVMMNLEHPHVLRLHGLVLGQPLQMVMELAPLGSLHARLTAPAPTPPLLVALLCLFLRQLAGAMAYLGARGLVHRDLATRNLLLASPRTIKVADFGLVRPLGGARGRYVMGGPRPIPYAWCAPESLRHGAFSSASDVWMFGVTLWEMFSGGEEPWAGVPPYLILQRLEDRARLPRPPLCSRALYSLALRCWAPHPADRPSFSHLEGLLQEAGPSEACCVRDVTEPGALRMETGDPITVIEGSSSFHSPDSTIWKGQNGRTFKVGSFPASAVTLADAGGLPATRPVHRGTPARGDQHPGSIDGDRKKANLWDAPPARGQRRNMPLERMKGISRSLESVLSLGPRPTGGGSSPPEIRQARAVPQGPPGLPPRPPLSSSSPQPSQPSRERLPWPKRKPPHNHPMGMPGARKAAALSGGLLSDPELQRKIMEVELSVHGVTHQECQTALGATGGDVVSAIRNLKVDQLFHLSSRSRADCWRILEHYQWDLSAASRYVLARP

[4] = biological target: RIPK2 (Homo sapiens, UniProt O43353)
[5] = biological target: RET(M918T) (Homo sapiens, UniProt P07949, M918T)
Chain of RET(M918T) (P07949 whole entry M918T): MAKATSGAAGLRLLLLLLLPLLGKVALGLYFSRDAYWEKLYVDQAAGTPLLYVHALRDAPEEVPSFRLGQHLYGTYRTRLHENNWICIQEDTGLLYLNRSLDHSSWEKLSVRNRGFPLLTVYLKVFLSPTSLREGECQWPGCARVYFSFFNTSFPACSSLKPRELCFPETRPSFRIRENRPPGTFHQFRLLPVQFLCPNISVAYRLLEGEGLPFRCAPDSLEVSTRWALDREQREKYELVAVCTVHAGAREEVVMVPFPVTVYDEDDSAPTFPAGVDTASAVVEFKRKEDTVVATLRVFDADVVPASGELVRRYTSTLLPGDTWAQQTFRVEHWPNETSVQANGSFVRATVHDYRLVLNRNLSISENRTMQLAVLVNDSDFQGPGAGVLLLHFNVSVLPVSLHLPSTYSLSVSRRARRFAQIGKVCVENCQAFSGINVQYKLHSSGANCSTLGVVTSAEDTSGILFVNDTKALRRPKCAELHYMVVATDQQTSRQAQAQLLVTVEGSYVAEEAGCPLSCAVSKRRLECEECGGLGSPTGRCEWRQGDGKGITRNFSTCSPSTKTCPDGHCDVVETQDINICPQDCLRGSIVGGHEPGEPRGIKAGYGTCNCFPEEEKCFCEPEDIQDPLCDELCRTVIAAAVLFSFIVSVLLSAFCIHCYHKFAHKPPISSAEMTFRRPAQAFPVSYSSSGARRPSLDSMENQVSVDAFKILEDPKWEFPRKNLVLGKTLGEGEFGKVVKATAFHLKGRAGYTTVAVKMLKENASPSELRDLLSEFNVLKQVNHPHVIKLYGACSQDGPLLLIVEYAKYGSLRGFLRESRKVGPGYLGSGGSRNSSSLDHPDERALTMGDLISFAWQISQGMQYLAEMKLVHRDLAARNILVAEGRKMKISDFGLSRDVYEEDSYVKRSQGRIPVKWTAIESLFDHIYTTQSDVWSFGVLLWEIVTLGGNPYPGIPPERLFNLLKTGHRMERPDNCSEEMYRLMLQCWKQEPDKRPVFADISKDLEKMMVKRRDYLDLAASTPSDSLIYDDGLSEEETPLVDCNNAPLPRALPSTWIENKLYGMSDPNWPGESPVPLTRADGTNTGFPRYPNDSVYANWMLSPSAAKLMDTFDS

[6] = biological target: T3, NEK11 (Homo sapiens, UniProt Q8NG66)
T3 sequence (Q8NG66 1-645): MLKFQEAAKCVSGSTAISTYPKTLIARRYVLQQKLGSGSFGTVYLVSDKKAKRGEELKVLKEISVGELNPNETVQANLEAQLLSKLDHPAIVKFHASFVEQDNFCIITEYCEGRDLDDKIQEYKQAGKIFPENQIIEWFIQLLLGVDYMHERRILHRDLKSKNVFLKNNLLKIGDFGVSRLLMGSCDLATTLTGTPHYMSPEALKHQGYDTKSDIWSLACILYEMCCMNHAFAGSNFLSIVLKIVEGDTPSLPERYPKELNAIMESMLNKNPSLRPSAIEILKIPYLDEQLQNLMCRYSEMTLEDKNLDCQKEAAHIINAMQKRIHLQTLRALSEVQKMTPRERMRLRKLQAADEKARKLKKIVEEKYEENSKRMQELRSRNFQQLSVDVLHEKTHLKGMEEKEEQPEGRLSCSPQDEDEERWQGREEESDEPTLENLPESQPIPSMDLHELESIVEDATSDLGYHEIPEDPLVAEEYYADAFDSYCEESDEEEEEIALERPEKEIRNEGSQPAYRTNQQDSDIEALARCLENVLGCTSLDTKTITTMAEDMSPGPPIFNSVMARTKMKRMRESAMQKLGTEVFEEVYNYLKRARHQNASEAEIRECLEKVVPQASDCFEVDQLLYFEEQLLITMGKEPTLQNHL

[7] = biological target: LYN (Homo sapiens, UniProt P07948)
Chain of LYN (P07948 whole entry): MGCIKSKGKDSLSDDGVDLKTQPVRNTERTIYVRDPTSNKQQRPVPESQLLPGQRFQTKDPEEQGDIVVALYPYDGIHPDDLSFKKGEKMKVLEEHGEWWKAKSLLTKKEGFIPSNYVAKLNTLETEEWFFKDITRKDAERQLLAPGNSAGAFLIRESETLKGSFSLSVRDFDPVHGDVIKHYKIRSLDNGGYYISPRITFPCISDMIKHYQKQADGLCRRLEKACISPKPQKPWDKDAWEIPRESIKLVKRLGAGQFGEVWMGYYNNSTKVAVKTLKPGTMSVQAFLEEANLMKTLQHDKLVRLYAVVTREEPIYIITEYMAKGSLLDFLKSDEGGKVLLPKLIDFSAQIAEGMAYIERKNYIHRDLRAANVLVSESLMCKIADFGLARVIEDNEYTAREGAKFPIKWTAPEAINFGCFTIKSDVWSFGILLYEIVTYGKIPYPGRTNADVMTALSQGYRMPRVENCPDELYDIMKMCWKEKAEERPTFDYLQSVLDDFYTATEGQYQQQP

[8] = biological target: BUB1 (Homo sapiens, UniProt O43683)
Chain of BUB1 (O43683 whole entry): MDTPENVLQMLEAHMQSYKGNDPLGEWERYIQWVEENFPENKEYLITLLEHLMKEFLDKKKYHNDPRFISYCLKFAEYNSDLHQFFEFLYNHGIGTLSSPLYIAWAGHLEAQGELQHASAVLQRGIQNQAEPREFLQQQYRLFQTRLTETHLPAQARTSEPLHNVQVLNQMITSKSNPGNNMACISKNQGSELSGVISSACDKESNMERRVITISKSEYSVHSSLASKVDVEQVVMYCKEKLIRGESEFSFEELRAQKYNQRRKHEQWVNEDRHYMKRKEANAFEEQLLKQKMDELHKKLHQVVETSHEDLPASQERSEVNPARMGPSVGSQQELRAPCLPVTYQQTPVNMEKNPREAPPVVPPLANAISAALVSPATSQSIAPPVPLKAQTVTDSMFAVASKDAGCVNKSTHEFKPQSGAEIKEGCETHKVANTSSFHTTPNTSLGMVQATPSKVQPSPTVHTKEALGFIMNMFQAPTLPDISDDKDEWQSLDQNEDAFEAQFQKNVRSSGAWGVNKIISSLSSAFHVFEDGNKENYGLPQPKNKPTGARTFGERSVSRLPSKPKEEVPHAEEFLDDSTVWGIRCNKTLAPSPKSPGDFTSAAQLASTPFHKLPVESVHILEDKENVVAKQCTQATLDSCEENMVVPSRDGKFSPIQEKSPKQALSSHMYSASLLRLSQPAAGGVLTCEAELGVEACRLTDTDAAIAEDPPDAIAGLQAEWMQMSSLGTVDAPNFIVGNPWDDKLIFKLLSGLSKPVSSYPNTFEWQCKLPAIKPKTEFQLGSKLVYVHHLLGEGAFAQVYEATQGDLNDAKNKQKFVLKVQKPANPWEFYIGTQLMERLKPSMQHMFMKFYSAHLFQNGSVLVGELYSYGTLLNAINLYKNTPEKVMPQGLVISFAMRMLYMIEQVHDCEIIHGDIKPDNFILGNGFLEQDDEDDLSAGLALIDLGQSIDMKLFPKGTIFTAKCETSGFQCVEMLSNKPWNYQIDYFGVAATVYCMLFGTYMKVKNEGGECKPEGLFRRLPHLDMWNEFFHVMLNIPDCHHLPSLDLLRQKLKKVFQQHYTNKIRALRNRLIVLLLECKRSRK

[9] = read-out: Niraparib (MK-4827) / %Ctrl @ 10000nM
[10] = read-out: Olaparib / %Ctrl @ 10000nM
[11] = read-out: Rucaparib / %Ctrl @ 10000nM, binding competition, % of control
[12] = read-out: Talazoparib (BMN 673) / %Ctrl @ 10000nM

NC(=O)c1cccc2cn(-c3ccc([C@@H]4CCCNC4)cc3)nc12 [Niraparib]
percent of control binding at 10 µM [1, 9]: 96%
percent of control binding at 10 µM [2, 9]: 100%
percent of control binding at 10 µM [3, 9]: 56%
percent of control binding at 10 µM [4, 9]: 78%
percent of control binding at 10 µM [5, 9]: 95%
percent of control binding at 10 µM [6, 9]: 99%
percent of control binding at 10 µM [7, 9]: 71%
percent of control binding at 10 µM [8, 9]: 97%

O=C(c1cc(Cc2n[nH]c(=O)c3ccccc23)ccc1F)N1CCN(C(=O)C2CC2)CC1 [Olaparib]
percent of control binding at 10 µM [1, 10]: 97%
percent of control binding at 10 µM [2, 10]: 87%
percent of control binding at 10 µM [3, 10]: 95%
percent of control binding at 10 µM [4, 10]: 93%
percent of control binding at 10 µM [5, 10]: 100%
percent of control binding at 10 µM [6, 10]: 82%
percent of control binding at 10 µM [7, 10]: 93%
percent of control binding at 10 µM [8, 10]: 83%

CNCc1ccc(-c2[nH]c3cc(F)cc4c3c2CCNC4=O)cc1 [Rucaparib]
percent of control binding at 10 µM [1, 11]: 77%
percent of control binding at 10 µM [2, 11]: 87%
percent of control binding at 10 µM [3, 11]: 91%
percent of control binding at 10 µM [4, 11]: 88%
percent of control binding at 10 µM [5, 11]: 97%
percent of control binding at 10 µM [6, 11]: 91%
percent of control binding at 10 µM [7, 11]: 89%
percent of control binding at 10 µM [8, 11]: 48%

Cn1ncnc1[C@H]1c2n[nH]c(=O)c3cc(F)cc(c23)N[C@@H]1c1ccc(F)cc1 [Talazoparib]
percent of control binding at 10 µM [1, 12]: 80%
percent of control binding at 10 µM [2, 12]: 100%
percent of control binding at 10 µM [3, 12]: 93%
percent of control binding at 10 µM [4, 12]: 100%
percent of control binding at 10 µM [5, 12]: 96%
percent of control binding at 10 µM [6, 12]: 100%
percent of control binding at 10 µM [7, 12]: 87%
percent of control binding at 10 µM [8, 12]: 100%
